Assay [1] concerns male SD rats, obstruction-released kidney (glomerular lesions and tubulointerstitial lesions). The experiment in a line: Obstruction release model after complete obstruction of unilateral ureter for 14 days (Example 2-1). The format is in vivo. Also on record: key to Tubulointerstitial lesions: level of lesions (quality): summed lesion score: + = 1, ++ = 2, +++ = 3 points. Conditions: rat. The source says: (§1) That is, the rat was laparotomized under anesthesia with ether and left ureter was ligated with 7-0 Nylon at the height of the margin of lower pole of kidney to close the abdomen. On the 14th day after obstruction, the obstruction was released and urinary passage was reconstructed using a cuff. Thus, after 14 days, the part of ligated obstructed ureter was resected, a polyethylene tube of 25 gages (manufactured by Nippon Sherwood) was used as a cuff and inserted into and retained at the lumen from the cut end of the lower normal ureter, then the cuff was also retained in the expanded upper ureter and each of them was ligated and fixed by 7-0 Nylon to reconstruct the urinary passage. At the same time, the right kidney at the opposite side was excised. After the release of the obstruction, body weight was measured, blood was drawn on the 2nd day, 5th day and 7th day from the release to measure serum creatinine, then the rat was killed under anesthesia and the left obstruction-released kidney was excised.
With regard to the excised kidney, there were carried out measurements of weight of the kidney, creatinine concentration mg/dl in plasma as an indicator of kidney function and pathological test for the kidney, and also leukocyte cells which infiltrate the obstruction-released kidney were immunopathologically studied with cell surface markers for ED1 macrophages, CD11b (ED8) positive macrophages and CD5 positive lymphocytes. A number of positive cells was expressed as a number of cells per glomerulus from measured numbers of positive cells in five glomeruli, and for a number in tubulointerstitial tissue, it was expressed by the total number of cells existing in five fields of 200×magnification. For macrophages, a number of CD11b positive cells existing in glomerulus was considered as a number of CD11b^+CD2^+ macrophages and a case of existing not less than one positive cell per glomerulus was considered as positive (+). In the tubulointerstitial tissue, a number of […] 60 CD11b positive cells was considered as positive (+), or a case of CD11b^−CD2^+ macrophages dominantly increasing. Scoring of evaluation of tubulointerstitial lesions was as follows: + gets 1-point as a light lesion; ++ gets 2-point as a moderate lesion; and +++ gets3-point as a severe lesion. For glomerular lesions, when a proportion of lesioned glomeruli was decreased to not more than 40%, and for tubulointerstitial lesions, when a score of the lesions was not more than 4, it was considered as improved.
For glomerular lesions, by counting glomeruli causing thickening of Bowman's capsule wall and glomerular hyalinosis, a proportion of glomeruli having lesions was calculated. For tubulointerstitial lesions, by qualifying hyperplasia of tubular basement membrane and interstitial fibrosis, levels of the lesions were represented.
(§2) An in vivo biological test was carried out for the γ-lactone derivative according to the present invention using this model. Bulk powder of a test compound was dissolved in sterile physiological saline together with gum arabic, and concentrations of the test compound and gum arabic were adjusted to 30 mg/mL and 5% respectively. The preparation was administered orally or subcutaneously injected at the dose of 30 mg/kg or 3 mg/kg every day. The administration was conducted for the total 21 days of the obstructed period for 14 days and after release of the obstruction for 7 days.
For test groups, a group administered single compound group, a group administered both compound group and a control group administered solution of gum arabic were set up and compared for renal functions and morphological evaluations, as well as numbers of ED1, CD5, CD11b positive cells by means of immunopathology.

For assay [2] the test system is unchanged. The experiment in a line: Obstruction release model after complete obstruction of unilateral ureter for 14 days (Example 2-2). Format: in vivo. Also on record: key to Tubulointerstitial lesions: level of lesions: summed lesion score; + = 1, ++ = 2, +++ = 3; ≤6.5 improved. Conditions: rat, 30 mg/kg subcutaneously.
From the text: as §1, §2
For cell surface markers of leukocyte cells which infiltrate the obstruction-released kidney, ED1, CD11b (ED8), CD5 and CD2 were used. […] For CD5^+, a number of not less than 20 per glomerulus was considered as positive. For glomerular lesions, which was characterized by Bowman's capsule wall, glomerular hyalinosis, dilation of urinary space pole and hypertrophy of parietal cells, 50 glomeruli were evaluated to obtain a proportion of pathologic glomeruli. For tubulointerstitial lesions, levels of the lesions were represented by qualifying hyperplasia of tubular basement membrane, tubular enlargement and atrophy and interstitial fibrosis. Scoring was as follows: + gets 1-point as a light lesion; ++ gets 2-point as a moderate lesion; and +++ gets 3-point as a severe lesion. Levels of cell infiltration were evaluated qualitatively according to the above three-point scale. For glomerular lesions, when a proportion of lesioned glomeruli was decreased to not more than 20%, and for tubulointerstitial lesions, when a score of the lesions was not more than 6.5, it was considered as improved.
Numbers of cells positive for CD11b (ED8), CD2 and CD5 were compared by means of immunopathology, and CD11b^+CD2^+ macrophages were considered as regeneration-promoting macrophages in glomeruli and CD11b^−CD2^+CD5+ macrophages were considered as regeneration-promoting macrophages to tubulointerstitial lesions, and herewith, it was estimated whether each cell group is quantitatively dominant or not.

The mark [3] stands for this setting: 30 mg/kg subcutaneously every day for 21 days, one value per animal, 30 mg/kg.

Molecules are shown by their SMILES. Where “and” joins values, the source holds several entries; their conditions need not be identical. Equal entries are not always repeated. Entries after “also recorded” stand apart in the source; their conditions may differ.

Consider `O=C1CCC(F)(C(=O)OCc2ccccc2)O1` (stereo not shown) [compound (II-2), 2-fluoro-5-oxotetrahydrofuran-2-carboxylic acid benzyl ester], for which, in assay [1] (30 mg/kg subcutaneously), the “cases with increased regeneration-promoting CD11b^+CD2^+ macrophages to glomerular lesions” value is on record as “Regeneration-promoting macrophages were increased on both lesions” and the “cases with increased regeneration-promoting CD11b^−CD2^+ macrophages to tubulointerstitial lesions” value is “Regeneration-promoting macrophages were increased on both lesions”. Moreover, in assay [1] (30 mg/kg subcutaneously every day for 21 days, one value per animal), the “Regeneration CD11b^−CD2^+ macrophages to tubulointerstitial lesions, Determination: increase +” value is reported as “+ (a number of not more than 60 CD11b positive cells was considered as positive (+))”. For the same compound, in assay [1] (setting [3]), the “Coincidence of two regeneration macrophages being positive” value is on record as “Not coincident; also recorded: Coincident”; the “Glomerular lesions: proportion of lesioned glomeruli (%)” value is 32% and 28% and 19% and 18%; the “Number of regeneration CD11b^+CD2^+ macrophages to glomerular lesions: number of positive cells per glomerulus” value was 0.7 cells per glomerulus and 1.7 cells per glomerulus and 2.3 cells per glomerulus and 1.4 cells per glomerulus; the “Number of regeneration CD11b^−CD2^+ macrophages to tubulointerstitial lesions: number of positive cells (CD11b) in five fields of 200× magnification” value was 33 cells in five fields of 200× m and 35 cells in five fields of 200× m and 27 cells in five fields of 200× m and 16 cells in five fields of 200× m. In assay [1] (setting [3]), the “Regeneration CD11b^+CD2^+ macrophages to glomerular lesions, Determination: increase = +” value is listed as “+ (a case of existing not less than one positive cell per glomerulus was considered as positive (+))”; the Serum creatinine is 2.0 mg/dl (2×) and 2.5 mg/dl and 2.3 mg/dl; the “Tubulointerstitial lesions: level of lesions (quality)” value is 4.5 (2×) and 6.5 (2×).

Take `O=C1OC(Cl)(C(=O)OCc2ccccc2)c2ccccc21` (stereo not shown) [compound (I-3), 1-chloro-3-oxo-1,3-dihydroisobenzofuran-1-carboxylic acid benzyl ester]: in assay [2], the “cases in which regeneration-promoting CD11b^+CD2^+ macrophages were predominant in glomeruli” value is reported as “three of four cases”, the “cases in which regeneration-promoting CD11b^−CD2^+CD5+ macrophages were predominant in tubulointerstitial lesions” value is “three of four cases”, the “difference in serum creatinine” value was “no difference” and the “pathological improvement of glomerular lesions (cases)” value is recorded as “all four cases”. Further, in assay [2], the “pathological improvement of tubulointerstitial lesions (cases)” value was “two of four cases”. Further, in assay [2] (one value per animal, 30 mg/kg), the “Coincidence of two regeneration macrophages being positive” value is “Coincident”; the “Degree of cell infiltration” value was “+ and +++”; the “Number of regeneration CD11b^+CD2^+ macrophages to glomerular lesions: number of positive cells per glomerulus CD11b^+CD2^+” value was 4.3 cells per glomerulus and 1.8 cells per glomerulus (2×) and 0.5 cells per glomerulus; the “Number of regeneration CD11b^−CD2^+CD5^+ macrophages to tubulointerstitial lesions: number of positive cells in five fields of 200× magnification, CD5^+” value was 77 cells in five fields of 200× m and 25 cells in five fields of 200× m and 60 cells in five fields of 200× m and 20 cells in five fields of 200× m. Further, in assay [2] (one value per animal, 30 mg/kg), the “Number of regeneration CD11b^−CD2^+CD5^+ macrophages to tubulointerstitial lesions: number of positive cells in five fields of 200× magnification, CD11b^+” value is 62 cells in five fields of 200× m and 53 cells in five fields of 200× m and 14 cells in five fields of 200× m and 22 cells in five fields of 200× m; the “Regeneration macrophages to glomerular lesions, Determination Increase +” value was “+ (a case of existing not less than one positive cell per glomerulus was considered as positive (+))”; the Serum creatinine is 2.8 mg/dL and 1.4 mg/dL and 2.1 mg/dL and 1.7 mg/dL; the “Tubulointerstitial lesions: level of lesions” value was 6.5 and 3.5 and 7.0 and 8.5. Besides, the “Glomerular lesions: proportion of lesioned glomeruli (%)” value in assay [2] (one value per animal, 50 glomeruli evaluated) is on record as under 1%. In assay [2] (one value per animal, CD11b^+ not more than 60 and CD5^+ not less than 20, 30 mg/kg), the “Regeneration CD11b^−CD2^+CD5^+ macrophages to tubulointerstitial lesions, Determination Increase +” value is on record as “+ (For CD5^+, a number of not less than 20 per glomerulus was considered as positive)”.

The record behind these values is patent US20060014709A1, “Drug or cosmetic” (priority 2002, published 2006).
